“And” between values parts separate entries of the source, which are not always exact repeats. Equal entries are not always repeated. Where two headings read alike, the source gives them in different places.
Key:
FaDu cells = assay: IC50 assay (inhibition of proliferation, 4 h exposure, SRB); assay type: cell-based; details: for IC50: Homo sapiens, 4 h
UT-SCC-74B cells = assay: as above; assay type: cell-based; details: UT-SCC-74B, UT-SCC-74B; for IC50: Homo sapiens, 4 h
Procedure: Cells were seeded in 96-well plates (SiHa or FaDu 1500 cells/well, UT-SCC-74B 800 cells/well) in 100 μL. After incubation for 2 h, the drugs were added in 50 μL of the same titrated medium at 3× the final concentration to duplicate the wells. After a further 4 h the plates were checked for drug precipitation using a phase contrast microscope, then drugs were removed by aspirating and washing with the standard (pH 7.4) medium, then aspirating again and adding 150 μL of the medium. Cultures were then grown for 5 days before staining with sulphorhodamine B and measuring absorbance, with the estimation of IC50 values using 4-parameter logistic regression, as previously carried out.
The medium and plasticware was equilibrated in the chamber for 3 days prior to use. In the anoxia experiments, FaDu cells were plated in poly-L-lysine coated plates (Corning Cat # 356461) to improve attachment. […]
Footnotes: a Number of experiments. b Anoxic cytotoxicity ratio = oxic IC50/anoxic IC50. c pH
cytotoxicity ratio = IC50 at pHe 7.4/ IC50 at pHe 6.5. d Overall ratio = oxic IC50 pHe 7.4 / anoxic IC50 pHe
6.5. Values are means and errors are SEM. For ratios, the errors are root mean square SEM. […]

SiHa and SiHa/POR cells = assay: IC50 in SiHa versus SiHa/POR cultures under anoxia; assay type: cell-based; details: 4 h under anoxia, pHe 7.4
Procedure: The lack of effect of POR over-expression on the reductive metabolism of the BTO acids in intact cells led us to compare the cytotoxicities of SN30000 (2), 4a, and 7a in SiHa/POR, and the parental line, under anoxia (Figure 6).
Drug exposure was for 4 h under anoxia, at pHe 7.4, with regrowth under aerobic conditions for 5 days before staining with SRB. Values are means and SEM for the two experiments, each with triplicate cultures at each drug concentration. TEXT PRINTED IN THE PICTURE: Cmpd 2: Ratio 6.75 ± 0.20 | Cmpd 4a: Ratio 3.40 ± 0.22 | Cmpd 7a: Ratio 2.67 ± 0.46

SiHa cells = assay: Effect of phenylpyruvate (MCT pan-inhibition) on cytotoxicity under anoxia; details: anoxic SiHa cells
Procedure: Effect of phenylpyruvate (PPV, 100 or 500 μM) on proliferation of SiHa cells following 4 h
exposure under anoxia to PPV alone (A) or with cmpd 4a at pHe 7.4 (B) or pHe 6.5 (C). 3000 cells/well
were seeded in 96 well plates, and IC 50 values determined as in Figure S6. Each data point is mean ±
SEM for three replicate cultures in the same experiment.

- IC50 ratio SiHa / SiHa/POR (fold lower IC50 in POR cell line) (SiHa and SiHa/POR cells): 3.40 ± 0.22 and 3.4
SMILES: O=C(O)CCc1n[n+]([O-])c2ccccc2[n+]1[O-] [Compound 4a, 3-(2-Carboxyethyl)benzo[e][1,2,4]triazine 1,4-Dioxide]
- TMR (oxic IC50 pHe 7.4/anoxic IC50 pHe 6.5) (FaDu cells): 9.36 ± 1.68
- IC50 (FaDu cells; pHe 6.5, 4 h, anoxic, read-out: Anoxic IC50): 142 ± 21 µM
- IC50 (FaDu cells; pHe 6.5, 4 h, oxic, read-out: Oxic IC50): 507 ± 27 µM
- IC50 (FaDu cells; pHe 7.4, 4 h, anoxic, read-out: Anoxic IC50): 325 ± 18 µM
- IC50 (FaDu cells; pHe 7.4, 4 h, oxic, read-out: Oxic IC50): 1330 ± 136 µM
- PCR Anoxic (IC50 at pHe 7.4/IC50 at pHe 6.5) (FaDu cells; anoxic): 2.29 ± 0.36
- PCR oxic (IC50 at pHe 7.4/IC50 at pHe 6.5) (FaDu cells; oxic): 2.62 ± 0.30
- ACR (oxic IC50/anoxic IC50) (FaDu cells; pHe 6.5): 3.58 ± 0.56
- ACR (oxic IC50/anoxic IC50) (FaDu cells; pHe 7.4): 4.08 ± 0.48
- IC50 (UT-SCC-74B cells; pHe 6.5, 4 h, 20% O2, read-out: Oxic IC50): 297 ± 74 µM
- IC50 (UT-SCC-74B cells; pHe 6.5, 4 h, <0.01% O2, read-out: Anoxic IC50): 97.6 ± 12.3 µM
- IC50 (UT-SCC-74B cells; pHe 7.4, 4 h, 20% O2, read-out: Oxic IC50): 863 ± 66 µM
- IC50 (UT-SCC-74B cells; pHe 7.4, 4 h, <0.01% O2, read-out: Anoxic IC50): 225 ± 26 µM
- TME ratio (oxic IC50 pHe 7.4/anoxic IC50 pHe 6.5) (UT-SCC-74B cells): 8.84 ± 1.30
- PCR Anoxic (IC50 at pHe 7.4/IC50 at pHe 6.5) (UT-SCC-74B cells; anoxic): 2.31 ± 0.39 and 2.9
- PCR oxic (IC50 at pHe 7.4/IC50 at pHe 6.5) (UT-SCC-74B cells; oxic): 2.91 ± 0.76 and 2.3
- ACR (oxic IC50/anoxic IC50) (UT-SCC-74B cells; pHe 6.5): 3.04 ± 0.85
- ACR (oxic IC50/anoxic IC50) (UT-SCC-74B cells; pHe 7.4): 3.84 ± 0.53
- Effect of pan-inhibition of MCT by phenylpyruvate on sensitivity (SiHa cells): no effect
